Test results from patent US5466671A, “Apidaecin-type peptide antibiotics with improved activities and/or different antibacterial spectrum” (priority 1994, dated 1995).
Residues, ends and D or L forms follow the SMILES beside them. No end group written: not given here.

What was measured:
[1] = system: Haemophilus influenzae; assay: Inhibition zone assay (agar plate); type: cell-based; conditions: 50 nanomoles/well, 3 mm wells
[2] = system: E. coli Apid^R; assay: Minimal inhibitory concentration (liquid culture); type: cell-based; conditions: a-b = highest concentration with growth - lowest without growth
Text: For details see `Experimental Procedures`.

[3] = system: Y. enterocolitica; assay: Minimal inhibitory concentration (liquid culture); conditions: inoculum 5000 CFU/ml; a-b = highest concentration with growth - lowest without growth
[4] = system: E. coli 11775; assay: Minimal inhibitory concentration (liquid culture); conditions: a-b = highest concentration with growth - lowest without growth
[5] = system: Francisella tularensis; type: cell-based; conditions: agar plate, 50 nanomoles/well, 3 mm wells
[6] = system: Erwinia amylovora; assay: Inhibition zone assay (agar plate); type: cell-based; conditions: agar plate, 50 nanomoles/well, 3 mm wells
[7] = system: Salmonella typhi; type: cell-based; conditions: agar plate, 50 nanomoles/well, 3 mm wells
[8] = system: Enterobacter cloacae; assay: Inhibition zone assay (agar plate); type: cell-based; conditions: agar plate, 50 nanomoles/well, 3 mm wells
[9] = system: Pseudomonas syringae; assay: Inhibition zone assay (agar plate); type: cell-based; conditions: agar plate, 50 nanomoles/well, 3 mm wells
[10] = system: Klebsiella pneumoniae; assay: Inhibition zone assay (agar plate); type: cell-based; conditions: agar plate, 50 nanomoles/well, 3 mm wells
[11] = system: Acinetobacter calcoaceticus; assay: Inhibition zone assay (agar plate); type: cell-based; conditions: agar plate, 50 nanomoles/well, 3 mm wells
[12] = system: E. coli 25922; assay: Minimal inhibitory concentration (liquid culture); conditions: inoculum 1100 CFU/ml; a-b = highest concentration with growth - lowest without growth
[13] = system: M. morganii; assay: Minimal inhibitory concentration (liquid culture); conditions: inoculum 400 CFU/ml; a-b = highest concentration with growth - lowest without growth
[14] = system: A. calcoaceticus; assay: Minimal inhibitory concentration (liquid culture); conditions: inoculum 16 × 10^6 CFU/ml; a-b = highest concentration with growth - lowest without growth
[15] = system: S. typhimurium; assay: Minimal inhibitory concentration (liquid culture); conditions: inoculum 8 × 10^6 CFU/ml; a-b = highest concentration with growth - lowest without growth
[16] = system: Escherichia coli (ATCC11775); assay: Inhibition zone assay (agar plate); type: cell-based; conditions: agar plate, 50 nanomoles/well, 3 mm wells
[17] = system: E. coli 23802; assay: Minimal inhibitory concentration (liquid culture); conditions: inoculum 5000 CFU/ml; a-b = highest concentration with growth - lowest without growth
[18] = system: Escherichia coli (K514); type: cell-based; conditions: agar plate, 50 nanomoles/well, 3 mm wells
[19] = system: Salmonella typhimurium; assay: Inhibition zone assay (agar plate); type: cell-based; conditions: agar plate, 50 nanomoles/well, 3 mm wells
[20] = system: Agrobacterium tumefaciens; assay: Inhibition zone assay (agar plate); type: cell-based; conditions: agar plate, 50 nanomoles/well, 3 mm wells
[21] = system: Rhizobium meliloti; assay: Inhibition zone assay (agar plate); type: cell-based; conditions: 50 nanomoles/well, 3 mm wells
[22] = system: Yersinia enterocolitica; assay: Inhibition zone assay (agar plate); type: cell-based; conditions: 50 nanomoles/well, 3 mm wells
[23] = system: Campylobacter jejuni; assay: Inhibition zone assay (agar plate); type: cell-based; conditions: 50 nanomoles/well, 3 mm wells
[24] = system: Morganella morganii; assay: Inhibition zone assay (agar plate); type: cell-based; conditions: 50 nanomoles/well, 3 mm wells
[25] = system: Legionella pneumophila; type: cell-based; conditions: agar plate, 50 nanomoles/well, 3 mm wells
[26] = system: Escherichia coli (11775 Apid R); type: cell-based; conditions: agar plate, 50 nanomoles/well, 3 mm wells

Row | Compound | inhibition zone diameter (number of plus signs) [1] | minimal inhibitory concentration (MIC) ([2]; inoculum 12 × 10^6 CFU/ml) [µg/mL] | minimal inhibitory concentration (MIC) ([2]; inoculum 1000 CFU/ml) [µg/mL] | minimal inhibitory concentration (MIC) [3] [µg/mL] | minimal inhibitory concentration (MIC) ([4]; inoculum 16 × 10^6 CFU/ml) [µg/mL] | minimal inhibitory concentration (MIC) ([4]; inoculum 1200 CFU/ml) [µg/mL] | inhibition zone diameter (number of plus signs) [5] | inhibition zone diameter (number of plus signs) [6] | inhibition zone diameter (number of plus signs) [8] | inhibition zone diameter (number of plus signs) [9] | inhibition zone diameter (number of plus signs) [10] | minimal inhibitory concentration (MIC) [12] [µg/mL] | minimal inhibitory concentration (MIC) [13] [µg/mL] | minimal inhibitory concentration (MIC) [14] [µg/mL] | minimal inhibitory concentration (MIC) [15] [µg/mL] | inhibition zone diameter (number of plus signs) [16] | minimal inhibitory concentration (MIC) [17] [µg/mL] | inhibition zone diameter (number of plus signs) [18] | inhibition zone diameter (number of plus signs) [19] | inhibition zone diameter (number of plus signs) [20] | other results
1 | CC(C)C[C@H](NC(=O)[C@H](CCCNC(=N)N)NC(=O)[C@@H]1CCCN1C(=O)[C@H](Cc1c[nH]cn1)NC(=O)[C@@H]1CCCN1C(=O)[C@@H]1CCCN1C(=O)[C@H](CCCNC(=N)N)NC(=O)[C@@H]1CCCN1C(=O)[C@@H]1CCCN1C(=O)[C@@H](NC(=O)[C@H](CCC(N)=O)NC(=O)[C@H](CCC(N)=O)NC(=O)[C@@H]1CCCN1C(=O)[C@H](CCCNC(=N)N)NC(=O)[C@@H]1CCCN1C(=O)[C@H](CCCCN)NC(=O)[C@H](CC(N)=O)NC(=O)[C@@H](N)CO)C(C)C)C(=O)O [Yj +S, Ser--Asn--Lys--Pro--Arg--Pro--Gln--Gln--Val--Pro--Pro--Arg--Pro--Pro--His--Pro--Arg--Leu] (H-SNKPRPQQVPPRPPHPRL-OH) | +++ ((+++) 10-14 mm) | 10 to 20 | 1 to 5 | 1 to 5 | 0.1 to 0.5 | 0.1 to 0.5 | ++ ((++) 7-9 mm) | +++ ((+++) 10-14 mm) | ++ ((++) 7-9 mm) | ++++ ((++++) 15-19 mm) | ++ ((++) 7-9 mm) | 0.1 to 0.5 | 0.5 to 1 | 2 to 10 | 0.1 to 0.5 | +++ ((+++) 10-14 mm) | 0.5 to 1 | ++ ((++) 7-9 mm) | +++ ((+++) 10-14 mm) | – | inhibition zone diameter (number of plus signs) [7]: ++ ((++) 7-9 mm); inhibition zone diameter (number of plus signs) [11]: + ((+) 5-6 mm)
2 | CC(C)C[C@H](NC(=O)[C@H](CCCNC(=N)N)NC(=O)[C@@H]1CCCN1C(=O)[C@H](Cc1c[nH]cn1)NC(=O)[C@@H]1CCCN1C(=O)[C@@H]1CCCN1C(=O)[C@H](CCCNC(=N)N)NC(=O)[C@@H]1CCCN1C(=O)[C@H](C)NC(=O)[C@@H]1CCCN1C(=O)[C@@H](NC(=O)[C@H](Cc1ccc(O)cc1)NC(=O)[C@@H](NC(=O)[C@@H]1CCCN1C(=O)[C@H](CCCNC(=N)N)NC(=O)[C@@H](N)CC(N)=O)[C@@H](C)O)C(C)C)C(=O)O [Ck A, Asn--Arg--Pro--Thr--Tyr--Val--Pro--Ala--Pro--Arg--Pro--Pro--His--Pro--Arg--Leu] (H-NRPTYVPAPRPPHPRL-OH) | ++ ((++) 7-9 mm) | > 40 | > 40 | 1 to 5 | 1 to 5 | 0.1 to 0.5 | + ((+) 5-6 mm) | +++ ((+++) 10-14 mm) | ++ ((++) 7-9 mm) | +++ ((+++) 10-14 mm) | ++ ((++) 7-9 mm) | 1 to 5 | 20 to 40 | > 20 | 1 to 5 | +++ ((+++) 10-14 mm) | > 40 | ++ ((++) 7-9 mm) | +++ ((+++) 10-14 mm) | ++++ ((++++) 15-19 mm) | inhibition zone diameter (number of plus signs) [21]: ++++ ((++++) 15-19 mm); inhibition zone diameter (number of plus signs) [22]: +++ ((+++) 10-14 mm)
3 | CC[C@H](C)[C@H](NC(=O)[C@@H]1CCCN1C(=O)[C@H](C)NC(=O)[C@@H]1CCCN1C(=O)[C@H](CCCNC(=N)N)NC(=O)[C@@H]1CCCN1C(=O)[C@H](CCCNC(=N)N)NC(=O)[C@H](CC(N)=O)NC(=O)[C@@H]1CCCN1C(=O)[C@H](CCCCN)NC(=O)CN)C(=O)N[C@@H](CCC(N)=O)C(=O)N1CCC[C@H]1C(=O)N[C@@H](CCCNC(=N)N)C(=O)N1CCC[C@H]1C(=O)N1CCC[C@H]1C(=O)N[C@@H](Cc1c[nH]cn1)C(=O)N1CCC[C@H]1C(=O)N[C@@H](CCCNC(=N)N)C(=O)N[C@@H](CC(C)C)C(=O)O [Cd 1+, Gly--Lys--Pro--Asn--Arg--Pro--Arg--Pro--Ala--Pro--Ile--Gln--Pro--Arg--Pro--Pro--His--Pro--Arg--Leu] (H-GKPNRPRPAPIQPRPPHPRL-OH) | ++++ ((++++) 15-19 mm) | – | – | 20 to 40 | > 20 | 10 to 20 | – | ++ ((++) 7-9 mm) | +++ ((+++) 10-14 mm) | ++++ ((++++) 15-19 mm) | ++ ((++) 7-9 mm) | 10 to 20 | 10 to 20 | > 20 | 10 to 20 | ++ ((++) 7-9 mm) | 10 to 20 | ++ ((++) 7-9 mm) | ++ ((++) 7-9 mm) | ++++ ((++++) 15-19 mm) | inhibition zone diameter (number of plus signs) [23]: +++ ((+++) 10-14 mm); inhibition zone diameter (number of plus signs) [24]: ++ ((++) 7-9 mm); inhibition zone diameter (number of plus signs) [21]: ++++ ((++++) 15-19 mm); inhibition zone diameter (number of plus signs) [25]: ++ ((++) 7-9 mm); inhibition zone diameter (number of plus signs) [11]: ++ ((++) 7-9 mm); inhibition zone diameter (number of plus signs) [26]: ++ ((++) 7-9 mm)
4 | NRPTYVPPPRPPHPRL [Ck P] | ++ ((++) 7-9 mm) | > 40 | > 40 | 1 to 5 | 1 to 5 | 0.1 to 0.5 | ++ ((++) 7-9 mm) | +++ ((+++) 10-14 mm) | +++ ((+++) 10-14 mm) | ++++ ((++++) 15-19 mm) | ++ ((++) 7-9 mm) | 0.5 to 1 | > 40 | > 20 | 1 to 5 | +++ ((+++) 10-14 mm) | 20 to 40 | ++ ((++) 7-9 mm) | ++++ ((++++) 15-19 mm) | ++++ ((++++) 15-19 mm) | inhibition zone diameter (number of plus signs) [21]: +++++ ((+++++) 20 or more min); inhibition zone diameter (number of plus signs) [22]: +++ ((+++) 10-14 mm)
